# Measurements published in patent US12171769B2, “Methods, compositions, and kits for treating and/or preventing a side effect associated with radiation and/or chemotherapy exposure” (BioMimetix JV, LLC, priority 2017, dated 2024).
# Like-named read-outs stand apart in the source and are kept apart here.
# Experiments:
# platelet count = test system: platelet count
# Experimental: (§1) Four different loading doses were tested, which were: 7, 14, 28 and 42 mg, and the maintenance doses were half of the respective loading dose. The loading dose was administered prior to chemoradiation, and for the duration of treatment the respective maintenance doses were administered twice a week (i.e., a patient administered a 7 mg loading dose received two separate maintenance doses of 3.5 mg each week for 8 weeks.) The primary focus of this study is to determine the maximum tolerated dose of four dose levels. […] All subjects have a diagnosis of glioblastoma (WHO grade IV) and mean age is 62.7 years (range 54 years to 80 years).
# In patients receiving temozolomide the standard of care is to stop therapy for patients developing a platelet count below 100,000.
# [1] = TMZ in combination with RT; cited from earlier work
# [2] = administered orally on an empty stomach; cited from earlier work
# [3] = stored at 27° C.; cited from earlier work
# [4] = test system: leukocyte-endothelial cell interactions; conditions: for Effect, repeated measures ANOVA of shear rates / Effect, repeated measures ANOVA of vessel diameter / Effect, repeated measures ANOVA of blood velocity: vs baseline (saline)
# Experimental: (§2) MnBuOE synthesis and administration: MnBuOE was synthesized as previously described. […] Mouse injections were administered subcutaneously, with MnBuOE dissolved in sterile saline. Mice received an initial dose of 0.2, 0.6, or 2.0 mg/kg, followed by three times per week (t.i.w.) maintenance doses of one-half of the loading dose (i.e., 0.1, 0.3, or 1.0 mg/kg, respectively) (termed 2/1, 0.6/0.3 and 0.2/0.1 dosing schedules).
# (§3) A collimating cone that produced a 15 mm×40 mm radiation field was used to target the radiation beam to the salivary gland and oral cavity. The RT field included all major and minor salivary glands (located primarily in the neck region of mice), and the oral mucosa, including glands of the cheeks, lips and tongue. The target tissues were localized within the radiation field with a source-to-subject distance of 30.76 cm, using fluoroscopy at 40 kVp and 2.5 mA with a 2 mm Al filter. […] Control mice were anesthetized but not imaged fluoroscopically or irradiated.
# Mice were anesthetized with 80/8 mg/kg ketamine/xylazine mixture. Acridine orange (Sigma-Aldrich, St. Louis, MO) was injected intravenously (100 μl of 0.1% acridine orange in saline). The ventral surface of the tongue was placed on a glass cover slip before mounting the mouse onto a Zeiss Observer. Z1 (Carl Zeiss A G, Oberkochen, Germany) inverted microscope equipped with Zeiss Filter Set 38.
# Fluorescent excitation was performed at 470 nm, and video was obtained at 525 nm using a 40× objective. Two separate regions with at least four veins in the […] range were identified, and a 60-120 second long video at 5 frames-per-second was obtained using Zen Imaging Software (Carl Zeiss A G, Oberkochen, Germany). Mice were kept warm while anesthetized using a heated stage.
# Leukocyte-endothelial cell interaction analysis: All video analysis was performed in a blinded fashion. Rolling leukocytes were defined as cells that marginated along the vessel wall and were clearly dissociated from the bulk blood flow. Four vessels were analyzed per mouse. Leukocyte counting was repeated in triplicate for each vessel and averaged to obtain the flux of rolling leukocytes (Frolling). Vessel diameter (D) and the velocity of at least one free-flowing leukocyte(s) (VL) were also measured. A pseudo shear rate (gs) was also calculated for each vessel as: gs=8VL/D. These methods have been described previously. (18)
# GSH/GSSG = conditions: MnBuOE 0.2 mg/kg 24 hours prior to RT (9 Gy); 24 hours post-RT
# Experimental: as §2
# [5] = test system: normal tissue injury following RT+cisplatin
# Experimental: Mice were treated with 1×9Gy+6 mg/kg cisplatin.
# as §3
# Mucositis evaluation using fluorescence molecular tomography: As reported previously, we used ProSense 750EX (Perkin Elmer, Waltham, MA) to detect mucositis. ProSense 750EX is a near-infrared (NIR) imaging agent that is cleaved by cathepsins, a family of enzymes that are expressed during inflammation, (17). Mice were injected intravenously with 100 μL ProSense 750EX. Twenty-four hours after injection, mice were anesthetized via isoflurane and imaged using the Visen FMT 2500LX (Perkin Elmer). The ProSense 750EX signal was quantified using TrueQuant software (Perkin Elmer Life and Analytical Sciences, Downers Grove, IL).
# [6] = in vivo, 1.5 mg/kg
# Text: The magnitude of such oxidative modification is directly related to the levels of major reactive species involved in the process: H2O2 and MnBuOE.
# cognitive function = conditions: eight subjects, before vs after concurrent chemoradiation (8 weeks)
# Experimental: as §1
# Cognitive testing included Hopkins Verbal Learning Test-Revised (HVLT-R), Trails Making A and B Tests, and Controlled Oral Wood Association Test (COWA). […] This is notable because these are the primary cognitive tests that reveal poorer performance in multiple brain mestastases patients after whole brain radiation therapy.
# xerostomia = conditions: 11 weeks post-RT (9 Gy); 2/1 mg/kg MnBuOE; vs unirradiated control
# Experimental: Xerostomia quantification by stimulating saliva production: Mice were injected intraperitoneally with 3 μg carbomylcholine chloride (Sigma) dissolved in sterile phosphate-buffered saline. Salivation began 2 minutes after injection. Saliva was collected via pipette for 4 minutes. The volume was measured gravimetrically, assuming a density of 1 g/mL.
# [7] = test system: FaDu (human pharyngeal carcinoma) cells
# Experimental: For tumor control studies, female nu/nu mice were obtained from the Duke University Breeding Facility. Mice were group housed in a barrier facility and allowed to acclimate to their new environment for at least one week before experiments.
# Tumor growth delay study: FaDu (human pharyngeal carcinoma) cells were obtained from the Duke University Cell Culture facility and were confirmed to be free of mycoplasma and known rodent pathogens. Cells were grown in Dulbecco's modified Eagle's medium with 10% fetal bovine serum. Mice were injected s.c. in the right flank with 3×10^6 cells suspended in 100 ml serum-free media. Seven days after implantation mice were randomized to treatment groups that received either MnBuOE (0.6 mg/kg loading dose followed by t.i.w. 0.3 mg/kg (loading/3× weekly maintenance) MnBuOE or an equivalent volume of saline. Tumors were measured daily with calipers and the volume was calculated using the equation V=(A^2×B×π)/6, where A is the shortest diameter and B is the longest diameter. As tumors reached 200 mm^3, they randomized into radiation treatment groups consisting of three daily fractions of radiation (6, 9, 12, 15 or 17 Gy/fraction) administered on three consecutive days. Cisplatin (6 mg/kg; APP pharmaceuticals, Schaumberg, IL) was injected intraperitoneally four hours prior to the first radiation fraction. […]
# FaDu tumors = conditions: MnBuOE 1.5 mg/kg b.i.d.; five fractions of radiation (5-10 Gy/fraction); previous work (13); cited from earlier work
# Text for mucositis: Animals: For normal tissue studies, six-to-eight week-old female C57B1/6 mice were used (Jackson Laboratory, Bar Harbor, ME). […] Mice were group housed in a barrier facility and allowed to acclimate to their new environment for at least one week before experiments.
# Mucositis evaluation using fluorescence molecular tomography: As reported previously, we used ProSense 750EX (Perkin Elmer, Waltham, MA) to detect mucositis. […] The ProSense 750EX signal was quantified using TrueQuant software (Perkin Elmer Life and Analytical Sciences, Downers Grove, IL).
molecule,measurement,setting,value
"Cn1nnc2c(C(N)=O)ncn2c1=O [TMZ, 8-Carbamoyl-3-methylimidazol[5,1-d]-1,2,3,5-tetrazine-4-(3H)-one]","patients who developed platelets below 100,000","platelet count; temozolomide + radiation without BMX-001, n=20",9 out of 20
same,Grade 3/4 non-hematological toxicity: Fatigue,[1],7%
same,Grade 3/4 non-hematological toxicity: infection,[1],3%
same,Grade 3/4 non-hematological toxicity: nausea and vomiting with a 5HT3-RA,[1],< 1%
same,Grade 3/4 non-hematological toxicity: other constitutional symptoms,[1],2%
same,Grade 3/4 non-hematological toxicity: rash and dermatologic side effects,[1],1%
same,Grade 3/4 non-hematological toxicity: vision,[1],1%
same,Non-hematological grade 2 toxicity: Fatigue,[1],26%
same,Non-hematological grade 2 toxicity: infection,[1],1%
same,Non-hematological grade 2 toxicity: nausea and vomiting,[1],13%
same,Non-hematological grade 2 toxicity: other constitutional symptoms,[1],7%
same,Non-hematological grade 2 toxicity: rash and dermatologic side effects,[1],9%
same,Non-hematological grade 2 toxicity: vision,[1],14%
same,bioavailable,[2],approximately 100%
N.N.[Cl][Pt][Cl] [cisplatin],stability of reconstituted solution,[3],20 h
manganese butoxyethyl pyridyl porphyrin [BMX-001],"Effect, repeated measures ANOVA of shear rates",[4]; MnBuOE + RT (9 Gy),−0.83
same,"Effect, repeated measures ANOVA of vessel diameter",[4]; MnBuOE + RT (9 Gy),0.002
same,"Effect, repeated measures ANOVA of blood velocity","[4]; MnBuOE + RT (9 Gy), 24 hours post-RT",0.01
same,"Effect, repeated measures ANOVA of shear rates",[4]; MnBuOE alone,−20.88
same,"Effect, repeated measures ANOVA of vessel diameter",[4]; MnBuOE alone,0.009
same,"Effect, repeated measures ANOVA of blood velocity","[4]; MnBuOE alone, 24 hours post sham RT",−0.00
same,leukocyte rolling,[4]; MnBuOE treatment alone,without increasing leukocyte rolling
same,mean number of rolling leukocytes,"[4]; combination of 0.2/0.1 MnBuOE and RT, 24 hours post-RT",decreases
same,GSH/GSSG lower than the 0 Gy MnBuOE tongue levels,GSH/GSSG,4%
same,NIR signal (mucositis),"[5]; 1×9 Gy + 6 mg/kg cisplatin, MnBuOE 0.6 mg/kg loading, t.i.w. 0.3 mg/kg for five weeks, vs saline plus RT+cisplatin",significantly less NIR signal
same,xerostomia (saliva production),"[5]; 10, 11 and 12 weeks, MnBuOE for the first five weeks after RT+cisplatin, data not shown",trend towards reduced xerostomia
same,body weight,"[5]; 10 weeks post-RT+cisplatin, MnBuOE 0.6/0.3 mg/kg, vs unirradiated control mice",not significantly different
same,long-term ulcerations and moist desquamation in the irradiated area,"[5]; RT+cisplatin, MnBuOE vs saline",lessened
same,MnBuOE concentration in the tumor,[6],1.5 to 2 µM
same,Trails Making B Test,cognitive function,faster scores
same,performance on Hopkins Verbal Learning Test-Revised (HVLT-R),"cognitive function; loading 7-28 mg, half dose twice a week",no degradation of performance
same,"patients who developed platelet counts below 100,000","platelet count; BMX-001+temozolomide + radiation, loading doses 7 mg to 28 mg/subject, N=9",None of the nine
same,NIR signal (mucositis signal),"mucositis; day 11 post-RT, 9 Gy, 2/1 mg/kg MnBuOE s.c. (loading/t.i.w. maintenance), vs 0 Gy control",significantly increased
same,NIR signal (mucositis signal),"mucositis; unirradiated mice, 2/1 mg/kg MnBuOE",did not show an appreciable NIR signal
same,stimulated salivation (xerostomia),xerostomia,significant (p<0.05) decreases
same,"Kaplan-Meier analysis (time to tripling of tumor volume), MnBuOE vs saline treated mice","[7]; 0.6/0.3 mg/kg, at any radiation dose",no significant differences
same,"slope of the dose response curve of tumor inhibition (AUC of dynamic treatment effect curves), MnBuOE vs control arm",[7]; p-value=0.47,no significant difference
same,dose-modifying effect (TCD50 curve),FaDu tumors,1.3
